US12583826B2, “[(1,5-diphenyl-1H-1,2,4-triazol-3-yl)oxy]acetic acid derivatives and salts thereof, crop protection compositions comprising them, methods for producing them and use thereof as safeners” (Bayer Aktiengesellschaft, priority 2019, dated 2026)

Key:
[1] = test system: summer wheat (TRZAS; cv. Triso); experiment: Absolute action: reduction of damage by mesosulfuron-methyl on summer wheat, greenhouse post-emergence; type: in vivo; settings: for Absolute reduction in herbicide damage (damage without safener minus damage with safener): mesosulfuron-methyl 20 g/ha; for Herbicide damage with compound of the formula (I): then mesosulfuron-methyl 20 g/ha, visual 0-100% scale, 14-21 days after application
Description: (§1) 2.1 Absolute Action of Selected Compounds of the Invention Using the Example of Reduction of Damage by Mesosulfuron-Methyl on Summer Wheat (TRZAS) The seeds of the crop plants to be treated are laid out in sandy loam in wood fiber or plastic pots (diameter ˜4 cm), covered with soil and grow in a greenhouse under good conditions for germination and growth. The trial plants were treated at the early leaf stage (BBCH10—BBCH12). In the course of this, the inventive compounds of the general formula (I) formulated in the form of wettable powders (WP) were sprayed onto the above-ground parts of the plants as an aqueous suspension with a water application rate corresponding to 800 l/ha with addition of wetting agent (e.g. 0.2% agrotin) in the specified dose. This was followed by the application of the herbicide. For this purpose, mesosulfuron-methyl, formulated in the form of water-dispersible granules (WG), was sprayed onto the above-ground parts of the plants in the form of an aqueous dispersion with a water application rate corresponding to 800 l/ha with addition of wetting agent (e.g. 0.2% agrotin) in a dose of 20 g/ha. The dose of the herbicide was chosen here such that it causes visually apparent damage (min. 30%, max. 75%) compared to untreated crop plants at the evaluation time on a control group of crop plants without safener treatment that were included in the same trial. After application, the plants were cultivated under good growth conditions in a greenhouse. The damage was visually assessed 14-21 days after application. The damage effect was assessed visually on a scale of 0-100% by comparison with untreated control plants, and averaged over 2-3 repeats per treatment. Examples: • 0%=no noticeable effect compared to the untreated plant • 20%=the treated plant population has 20% damage compared to the untreated control population (e.g. growth height, leaf damage, etc.) • 100%=treated plants completely damaged/killed.

[2] = test system: summer barley (HORVS; cv. Montoya); experiment: Absolute action: reduction of damage by mesosulfuron-methyl on summer barley, greenhouse post-emergence; type: in vivo; settings: for Absolute reduction in damage (difference): mesosulfuron-methyl 20 g/ha, damage without minus with safener; for Herbicide damage with compound of the formula (I) (%): then mesosulfuron-methyl 20 g/ha, visual 0-100% scale, 14-21 days after application
Description: as §1, with “2.2 Absolute Action” for “2.1 Absolute Action”, “on Summer Barley (HORVS) The seeds” for “on Summer Wheat (TRZAS) The seeds”, “treated are aid out in” for “treated are laid out in”, “soil and grown in a” for “soil and grow in a”, “leaf stage (BBCE10-BBCH12). In the” for “leaf stage (BBCH10—BBCH12). In the”, “control population (e.g.: growth height,” for “control population (e.g. growth height,”

SMILES	Absolute reduction in herbicide damage (damage without safener minus damage with safener) ([1]; safener 125 g a.i./ha) [%]	Herbicide damage with compound of the formula (I) ([1]; safener 125 g a.i./ha) [%]	Absolute reduction in herbicide damage (damage without safener minus damage with safener) ([1]; safener 500 g a.i./ha) [%]	Herbicide damage with compound of the formula (I) ([1]; safener 500 g a.i./ha) [%]	Absolute reduction in damage (difference) ([2]; safener 125 g a.i./ha) [%]	Herbicide damage with compound of the formula (I) (%) ([2]; safener 125 g a.i./ha)	Absolute reduction in damage (difference) ([2]; safener 500 g a.i./ha) [%]	Herbicide damage with compound of the formula (I) (%) ([2]; safener 500 g a.i./ha)	Absolute reduction in herbicide damage (damage without safener minus damage with safener) ([1]; safener 250 g/ha) [%]	Herbicide damage with compound of the formula (I) ([1]; safener 250 g/ha) [%]	Absolute reduction in damage (difference) ([2]; safener 250 g a.i./ha) [%]	Herbicide damage with compound of the formula (I) (%) ([2]; safener 250 g a.i./ha)
COC(=O)COc1nc(-c2ccc(Cl)cc2F)n(-c2ccc(Cl)cc2Cl)n1 [I.46-32]	43	10	46	7	27	33	33	27	–	–	–	–
CCOC(=O)COc1nc(-c2ccc(Cl)cc2F)n(-c2ccc(F)cc2F)n1 [I.47-38]	27	13	–	–	40	17	47	10	–	–	–	–
COC(=O)COc1nc(-c2ccccc2F)n(-c2ccc(Cl)cc2F)n1 [I.4-49]	40	17	–	–	44	13	47	10	–	–	–	–
O=C(O)COc1nc(-c2ccc(Cl)cc2F)n(-c2ccc(Cl)cc2F)n1 [I.48-49]	37	23	40	20	40	20	60	0	–	–	–	–
O=C(O)COc1nc(-c2cc(F)cc(F)c2)n(-c2ccc(F)cc2)n1 [I.54-4]	–	–	–	–	–	–	–	–	23	20	23	37
O=C(O)COc1nc(-c2ccc(Cl)cc2F)n(-c2ccccc2F)n1 [I.48-2]	27	3	–	–	20	27	27	20	–	–	–	–
CCOC(=O)COc1nc(-c2ccc(Cl)cc2F)n(-c2ccc(Cl)cc2Cl)n1 [I.47-32]	34	23	44	13	–	–	47	10	–	–	–	–
CCOC(=O)COc1nc(-c2ccc(Cl)cc2F)n(-c2ccc(Cl)cc2F)n1 [I.47-49]	30	30	–	–	50	10	–	–	–	–	–	–
O=C(O)COc1nc(-c2ccc(Cl)cc2F)n(-c2ccc(Cl)cc2Cl)n1 [I.48-32]	30	30	37	23	40	20	50	10	–	–	–	–
